Reference: patent US20090176817A1, “Method of Treatment of Diarrhea-Predominant Irritable Bowel Syndrome in a Subject” (priority 2005, published 2009)

Test system: diarrhea-predominant IBS subjects
Assay: Study S241.3.011: weekly diary questions on adequate relief
Format: in vivo, human
Conditions: for Number of months a subject was a responder: Zero months (IBS symptoms) / Overall responder rate, adequate relief of IBS symptoms / Overall responder rate, adequate relief of abdominal pain/discomfort / Overall responder rate, adequate relief of abnormal bowel habits / Number of months a subject was a responder: One month (Abdominal pain/discomfort) / Number of months a subject was a responder: One month (Abnormal bowel habits) / Number of months a subject was a responder: One month (IBS symptoms) / Number of months a subject was a responder: Three months (Abdominal pain/discomfort) / Number of months a subject was a responder: Three months (Abnormal bowel habits) / Number of months a subject was a responder: Three months (IBS symptoms) / Number of months a subject was a responder: Two months (Abdominal pain/discomfort) / Number of months a subject was a responder: Two months (Abnormal bowel habits) / Number of months a subject was a responder: Two months (IBS symptoms) / Number of months a subject was a responder: Zero months (Abdominal pain/discomfort) / Number of months a subject was a responder: Zero months (Abnormal bowel habits): three-month treatment period; for Number of months a subject was a responder: Zero months (IBS symptoms) / Number of months a subject was a responder: One month (Abdominal pain/discomfort) / Number of months a subject was a responder: One month (Abnormal bowel habits) / Number of months a subject was a responder: One month (IBS symptoms) / Number of months a subject was a responder: Three months (Abdominal pain/discomfort) / Number of months a subject was a responder: Three months (Abnormal bowel habits) / Number of months a subject was a responder: Three months (IBS symptoms) / Number of months a subject was a responder: Two months (Abdominal pain/discomfort) / Number of months a subject was a responder: Two months (Abnormal bowel habits) / Number of months a subject was a responder: Two months (IBS symptoms) / Number of months a subject was a responder: Zero months (Abdominal pain/discomfort) / Number of months a subject was a responder: Zero months (Abnormal bowel habits): monthly LOCF; for Overall responder rate, adequate relief of IBS symptoms / Overall responder rate, adequate relief of abdominal pain/discomfort / Overall responder rate, adequate relief of abnormal bowel habits: observed case
Description: Study S241.3.011 was a Phase III, double-blind, placebo-controlled, randomized, multinational study to investigate the safety and efficacy of 2 mg TID of cilansetron for a period of 12 weeks followed by a rerandomized, placebo-controlled four-week treatment period, in diarrhea-predominant IBS subjects. The study was conducted in six countries including the US. A total of 2115 subjects consented to participate, and 770 subjects were randomized. A total of 746 subjects were analyzed for efficacy and 755 subjects were analyzed for safety. Diagnosis and main criteria for inclusion were IBS subjects satisfying the Rome I criteria (1992); the diarrhea predominant sub-population of the Rome II criteria; and a minimum abdominal pain/discomfort, stool frequency and consistency determined during the run-in period. Subjects were treated with cilansetron 2 mg tablets given orally TID or matching placebo tablets given orally TID for 12 weeks followed by a rerandomized, placebo-controlled four-week treatment period.
The primary efficacy parameter was the number of months that a subject was a responder for IBS symptoms (abdominal pain, abdominal discomfort, abnormal bowel habits) over the 12-week treatment period. A responder for a month (monthly responder) was defined as a subject who answered the weekly question with “yes” at least twice for that month. The two main secondary efficacy parameters were the monthly responder rates based on the “adequate relief” questions regarding abdominal pain/discomfort and abnormal bowel habits during the 12-week treatment period. The overall response rate and responder rate for the weekly diary questions on adequate relief at each month and all months, the adequate relief rate, the number of subjects with adequate relief by week, daily diary questions, IBS-QOL scores, and the interruption of activities were also assessed. Safety was evaluated by physical examination, ECG, vital signs, laboratory evaluations, concomitant medications, and AEs.
Subjects who were initially randomized to the cilansetron 2 mg TID group and rerandomized to placebo, will be referred to as the C/P treatment group; subjects initially randomized to the placebo group and rerandomized to placebo will be referred to as the P/P treatment group; the P/C and C/C treatment group nomenclature follow the same principle. Of the 591 subjects who completed the three-month treatment period, 576 subjects were rerandomized and thus divided into the following treatment groups: 150 subjects in the C/C treatment group, 140 subjects in the C/P treatment group, 136 subjects in the P/C treatment group, and 150 subjects in the P/P treatment group. Of the 576 subjects rerandomized, a higher percentage of subjects in the C/C treatment group (99%) completed the study compared with the C/P (95%), P/C (93%), and the P/P (95%) treatment groups.
Studies S24 1.3.OO6, S24 1.3.0 1 1, and S24 1.3.009 used the following efficacy measurements: • The subjects answered the following three questions with “yes” or “no” using a phone diary at the end of each week: • a) During the last week, did you experience adequate relief of your IBS symptoms, such as abdominal pain, abdominal discomfort, abnormal bowel habits? • b) During the last week, did you experience adequate relief of your abdominal pain and/or discomfort? • c) During the last week, did you experience adequate relief of your abnormal bowel habits? • The subjects rated the following symptoms using the phone diary at the end of each day: • abdominal pain/discomfort (five-point scale); • stool consistency (seven-point Bristol Stool Scale); • stool frequency (number of bowel movements each day); • urgency (five-point scale); • straining (yes or no); • feeling of incomplete defecation (yes or no); • bloating or feeling of abdominal distension (five-point scale). • In Studies S241 A006 and S241.3.009, subjects completed the IBS-QOL Survey at Baseline (Day 1) and at the end of treatment. […]

[1] = Baseline BMI: <30 kg/m^2, ITT, 2 mg TID
[2] = Baseline BMI: ≧30 kg/m^2, ITT, 2 mg TID
[3] = Baseline severity of IBS: non-severe, ITT, 2 mg TID
[4] = Baseline severity of IBS: severe, ITT, 2 mg TID
[5] = Duration of IBS: >24 months to ≦48 months, 2 mg TID, monthly LOCF imputation, ITT

How did the “Number of months a subject was a responder: Zero months (IBS symptoms)” value (“Number … Zero months (IBS symptoms)” below) [1] turn out when `Cc1nccn1C[C@H]1CCc2c(c3cccc4c3n2CCC4)C1=O` [Cilansetron, (R)-(−)-4,5,6,8,9,10-hexahydro-10-[(2-methyl-1H-imidazol-1-yl)methyl]-11H-pyrido-[3,2,1-jk]-carbazol-11-one] was run?
Its value is 73 (27) n (%).

And the “Overall responder rate, adequate relief of IBS symptoms” value [1]?
Its value is 148 (56) n (%).

And the “Overall responder rate, adequate relief of abdominal pain/discomfort” value [1]?
Its value is 158 (59) n (%).

What about the “Overall responder rate, adequate relief of abnormal bowel habits” value [1] of the same molecule?
The value was 150 (56) n (%).

And the “Number of months a subject was a responder: One month (Abdominal pain/discomfort)” value (“Number … One month (Abdominal pain/discomfort)” for short) [2]?
The value was 15 (14) n (%).

What about the “Number of months a subject was a responder: One month (Abnormal bowel habits)” value (“Number … One month (Abnormal bowel habits)” for short) [2] of the same molecule?
Its value is 17 (15) n (%).

What about the “Number of months a subject was a responder: One month (IBS symptoms)” value (“Number … One month (IBS symptoms)” for short) [2] of the same molecule?
Its value is 16 (14) n (%).

And the “Number of months a subject was a responder: Three months (Abdominal pain/discomfort)” value [2]?
Its value is 46 (41) n (%).

What about the “Number of months a subject was a responder: Three months (Abnormal bowel habits)” value (“Number … Three months (Abnormal bowel habits)” below) [2] of the same molecule?
The value was 45 (41) n (%).

And the “Number of months a subject was a responder: Three months (IBS symptoms)” value (shortened to “Number … Three months (IBS symptoms)”) [2]?
Its value is 41 (37) n (%).

What about the “Number of months a subject was a responder: Two months (Abdominal pain/discomfort)” value (“Number … Two months (Abdominal pain/discomfort)” below) [2] of the same molecule?
Its value is 22 (20) n (%).

What about the “Number of months a subject was a responder: Two months (Abnormal bowel habits)” value (“Number … Two months (Abnormal bowel habits)” for short) [2] of the same molecule?
Its value is 15 (14) n (%).

And the “Number of months a subject was a responder: Two months (IBS symptoms)” value (from here on “Number … Two months (IBS symptoms)”) [2]?
Its value is 22 (20) n (%).

And the “Number of months a subject was a responder: Zero months (Abdominal pain/discomfort)” value (“Number … Zero months (Abdominal pain/discomfort)” for short) [2]?
Its value is 28 (25) n (%).

What about the “Number of months a subject was a responder: Zero months (Abnormal bowel habits)” value (shortened to “Number … Zero months (Abnormal bowel habits)”) [2] of the same molecule?
The value was 34 (31) n (%).

What about the “Number … Zero months (IBS symptoms)” value [2] of the same molecule?
The value was 32 (29) n (%).

What about the “Overall responder rate, adequate relief of IBS symptoms” value [2] of the same molecule?
The value was 58 (52) n (%).

What about the “Overall responder rate, adequate relief of abdominal pain/discomfort” value [2] of the same molecule?
Its value is 63 (57) n (%).

What about the “Overall responder rate, adequate relief of abnormal bowel habits” value [2] of the same molecule?
Its value is 53 (48) n (%).

What about the “Number … One month (Abdominal pain/discomfort)” value [3] of the same molecule?
The value was 25 (11) n (%).

What about the “Number … One month (Abnormal bowel habits)” value [3] of the same molecule?
Its value is 26 (12) n (%).

And the “Number … One month (IBS symptoms)” value [3]?
Its value is 29 (13) n (%).

What about the “Number of months a subject was a responder: Three months (Abdominal pain/discomfort)” value [3] of the same molecule?
Its value is 97 (44) n (%).

And the “Number … Three months (Abnormal bowel habits)” value [3]?
The value was 88 (40) n (%).

And the “Number … Three months (IBS symptoms)” value [3]?
The value was 92 (41) n (%).

What about the “Number … Two months (Abdominal pain/discomfort)” value [3] of the same molecule?
Its value is 40 (18) n (%).

What about the “Number … Two months (Abnormal bowel habits)” value [3] of the same molecule?
Its value is 40 (18) n (%).

And the “Number … Two months (IBS symptoms)” value [3]?
The value was 39 (18) n (%).

What about the “Number … Zero months (Abdominal pain/discomfort)” value [3] of the same molecule?
The value was 60 (27) n (%).

What about the “Number … Zero months (Abnormal bowel habits)” value [3] of the same molecule?
Its value is 68 (31) n (%).

And the “Number … Zero months (IBS symptoms)” value [3]?
Its value is 62 (28) n (%).

And the “Overall responder rate, adequate relief of IBS symptoms” value [3]?
Its value is 124 (56) n (%).

What about the “Overall responder rate, adequate relief of abdominal pain/discomfort” value [3] of the same molecule?
The value was 131 (59) n (%).

And the “Overall responder rate, adequate relief of abnormal bowel habits” value [3]?
The value was 121 (55) n (%).

What about the “Number … One month (Abdominal pain/discomfort)” value [4] of the same molecule?
Its value is 20 (13) n (%).

And the “Number … One month (Abnormal bowel habits)” value [4]?
The value was 24 (15) n (%).

And the “Number … One month (IBS symptoms)” value [4]?
The value was 25 (16) n (%).

And the “Number of months a subject was a responder: Three months (Abdominal pain/discomfort)” value [4]?
The value was 62 (40) n (%).

And the “Number … Three months (Abnormal bowel habits)” value [4]?
The value was 61 (39) n (%).

And the “Number … Three months (IBS symptoms)” value [4]?
Its value is 56 (36) n (%).

What about the “Number … Two months (Abdominal pain/discomfort)” value [4] of the same molecule?
The value was 32 (21) n (%).

What about the “Number … Two months (Abnormal bowel habits)” value [4] of the same molecule?
Its value is 26 (17) n (%).

And the “Number … Two months (IBS symptoms)” value [4]?
Its value is 31 (20) n (%).

And the “Number … Zero months (Abdominal pain/discomfort)” value [4]?
Its value is 41 (26) n (%).

And the “Number … Zero months (Abnormal bowel habits)” value [4]?
Its value is 44 (28) n (%).

What about the “Number … Zero months (IBS symptoms)” value [4] of the same molecule?
Its value is 43 (28) n (%).

And the “Overall responder rate, adequate relief of IBS symptoms” value [4]?
Its value is 82 (53) n (%).

And the “Overall responder rate, adequate relief of abdominal pain/discomfort” value [4]?
The value was 90 (58) n (%).

What about the “Overall responder rate, adequate relief of abnormal bowel habits” value [4] of the same molecule?
The value was 82 (53) n (%).

What about the “Overall responder rate, IBS symptoms” value (Caucasians) of the same molecule?
The value was 53%.

What about the “Overall responder rate, abdominal pain/discomfort” value (Caucasians) of the same molecule?
Its value is 57%.

And the “Overall responder rate, abnormal bowel habits” value (Caucasians)?
Its value is 51%.

What about the “Number of months a subject was a responder during the three-month treatment period: Abdominal pain/discomfort, One month” value [5] of the same molecule?
The value was 10 (14) n (%).

And the “Number of months a subject was a responder during the three-month treatment period: Abdominal pain/discomfort, Three months” value [5]?
Its value is 32 (44) n (%).

And the “Number of months a subject was a responder during the three-month treatment period: Abdominal pain/discomfort, Two months” value [5]?
Its value is 15 (21) n (%).

And the “Number of months a subject was a responder during the three-month treatment period: Abdominal pain/discomfort, Zero months” value [5]?
Its value is 15 (21) n (%).

And the “Number of months a subject was a responder during the three-month treatment period: Abnormal bowel habits, One month” value [5]?
Its value is 10 (14) n (%).

And the “Number of months a subject was a responder during the three-month treatment period: Abnormal bowel habits, Three months” value [5]?
Its value is 32 (44) n (%).
